ChEMBL document CHEMBL3046070, “New N-arylamino biquinoline derivatives: microwave-assisted synthesis and their antimicrobial activities” (2013)
In brackets after ≈: the same amount, converted by molar mass.

Key:
Type in all cases: functional
Vibrio cholerae = assay: Antibacterial activity against Vibrio cholerae MTCC 3906 assessed as growth inhibition after overnight incubation by NCCLS broth microdilution method
Aspergillus fumigatus = assay: Antifungal activity against Aspergillus fumigatus MTCC 3008 assessed as growth inhibition after overnight incubation by NCCLS broth microdilution method
Salmonella typhi = assay: Antibacterial activity against Salmonella enterica subsp. enterica serovar Typhi MTCC 98 assessed as growth inhibition after overnight incubation by NCCLS broth microdilution method
Bacillus subtilis = assay: Antibacterial activity against Bacillus subtilis MTCC 441 assessed as growth inhibition after overnight incubation by NCCLS broth microdilution method
Streptococcus pneumoniae = assay: Antibacterial activity against Streptococcus pneumoniae MTCC 1936 assessed as growth inhibition after overnight incubation by NCCLS broth microdilution method
Clostridium tetani = assay: Antibacterial activity against Clostridium tetani MTCC 449 assessed as growth inhibition after overnight incubation by NCCLS broth microdilution method
Candida albicans = assay: Antifungal activity against Candida albicans MTCC 227 assessed as growth inhibition after overnight incubation by NCCLS broth microdilution method
Escherichia coli = assay: Antibacterial activity against Escherichia coli MTCC 443 assessed as growth inhibition after overnight incubation by NCCLS broth microdilution method

Compound	MIC (Vibrio cholerae) [µg/mL]	MIC (Aspergillus fumigatus) [µg/mL]	MIC (Salmonella typhi) [µg/mL]	MIC (Bacillus subtilis) [µg/mL]	MIC (Streptococcus pneumoniae) [µg/mL]	MIC (Clostridium tetani) [µg/mL]	MIC (Candida albicans) [µg/mL]	MIC (Escherichia coli) [µg/mL]
CCOC(=O)C1=C(N)N(Nc2ccc(C)cc2)C2=C(C(=O)CC(C)(C)C2)C1c1cc2cc(C)ccc2nc1Cl (centres undefined)	500 (≈ 917 µM)	> 1000	500 (≈ 917 µM)	250 (≈ 459 µM)	250 (≈ 459 µM)	500 (≈ 917 µM)	1000 (≈ 1830 µM)	250 (≈ 459 µM)
CCOC(=O)C1=C(N)N(Nc2ccccc2)C2=C(C(=O)CC(C)(C)C2)C1c1cc2cc(C)ccc2nc1Cl (centres undefined)	100 (≈ 188 µM)	> 1000	250 (≈ 471 µM)	500 (≈ 942 µM)	250 (≈ 471 µM)	500 (≈ 942 µM)	500 (≈ 942 µM)	100 (≈ 188 µM)
CCOC(=O)C1=C(N)N(Nc2ccc(F)cc2)C2=C(C(=O)CC(C)(C)C2)C1c1cc2cc(OC)ccc2nc1Cl (centres undefined)	250 (≈ 442 µM)	> 1000	200 (≈ 354 µM)	200 (≈ 354 µM)	250 (≈ 442 µM)	250 (≈ 442 µM)	1000 (≈ 1770 µM)	125 (≈ 221 µM)
CCOC(=O)C1=C(N)N(Nc2ccc(OC)cc2)C2=C(C(=O)CC(C)(C)C2)C1c1cc2ccccc2nc1Cl (centres undefined)	200 (≈ 366 µM)	500 (≈ 914 µM)	200 (≈ 366 µM)	250 (≈ 457 µM)	200 (≈ 366 µM)	100 (≈ 183 µM)	250 (≈ 457 µM)	50 (≈ 91.4 µM)
CCOC(=O)C1=C(N)N(Nc2ccc(Br)cc2)C2=C(C(=O)CC(C)(C)C2)C1c1cc2cc(C)ccc2nc1Cl (centres undefined)	500 (≈ 820 µM)	1000 (≈ 1640 µM)	500 (≈ 820 µM)	100 (≈ 164 µM)	250 (≈ 410 µM)	500 (≈ 820 µM)	500 (≈ 820 µM)	500 (≈ 820 µM)
CCOC(=O)C1=C(N)N(Nc2ccc(F)cc2)C2=C(C(=O)CC(C)(C)C2)C1c1cc2ccccc2nc1Cl (centres undefined)	200 (≈ 374 µM)	500 (≈ 935 µM)	100 (≈ 187 µM)	200 (≈ 374 µM)	200 (≈ 374 µM)	200 (≈ 374 µM)	250 (≈ 467 µM)	100 (≈ 187 µM)
CCOC(=O)C1=C(N)N(Nc2ccc(OC)cc2)C2=C(C(=O)CC(C)(C)C2)C1c1cc2cc(C)ccc2nc1Cl (centres undefined)	250 (≈ 446 µM)	500 (≈ 891 µM)	100 (≈ 178 µM)	250 (≈ 446 µM)	125 (≈ 223 µM)	250 (≈ 446 µM)	250 (≈ 446 µM)	250 (≈ 446 µM)
CCOC(=O)C1=C(N)N(Nc2ccc(F)cc2)C2=C(C(=O)CC(C)(C)C2)C1c1cc2cc(C)ccc2nc1Cl (centres undefined)	100 (≈ 182 µM)	> 1000	200 (≈ 364 µM)	200 (≈ 364 µM)	200 (≈ 364 µM)	100 (≈ 182 µM)	100 (≈ 182 µM)	100 (≈ 182 µM)
CCOC(=O)C1=C(N)N(Nc2ccc(Br)cc2)C2=C(C(=O)CC(C)(C)C2)C1c1cc2ccccc2nc1Cl (centres undefined)	500 (≈ 839 µM)	> 1000	50 (≈ 83.9 µM)	250 (≈ 420 µM)	25 (≈ 42 µM)	500 (≈ 839 µM)	> 1000	100 (≈ 168 µM)
CCOC(=O)C1=C(N)N(Nc2ccc(Br)cc2)C2=C(C(=O)CC(C)(C)C2)C1c1cc2cc(Cl)ccc2nc1Cl (centres undefined)	250 (≈ 397 µM)	1000 (≈ 1590 µM)	100 (≈ 159 µM)	200 (≈ 317 µM)	200 (≈ 317 µM)	250 (≈ 397 µM)	500 (≈ 793 µM)	200 (≈ 317 µM)
CCOC(=O)C1=C(N)N(Nc2ccc(Cl)cc2)C2=C(C(=O)CC(C)(C)C2)C1c1cc2cc(C)ccc2nc1Cl (centres undefined)	250 (≈ 442 µM)	> 1000	200 (≈ 354 µM)	500 (≈ 884 µM)	500 (≈ 884 µM)	200 (≈ 354 µM)	500 (≈ 884 µM)	62.5 (≈ 111 µM)
O=C(N[C@H](CO)[C@H](O)c1ccc([N+](=O)[O-])cc1)C(Cl)Cl [CHLORAMPHENICOL]	50 (≈ 155 µM)	–	50 (≈ 155 µM)	50 (≈ 155 µM)	50 (≈ 155 µM)	50 (≈ 155 µM)	–	50 (≈ 155 µM)
CCOC(=O)C1=C(N)N(Nc2ccccc2)C2=C(C(=O)CC(C)(C)C2)C1c1cc2cc(OC)ccc2nc1Cl (centres undefined)	250 (≈ 457 µM)	> 1000	250 (≈ 457 µM)	200 (≈ 366 µM)	200 (≈ 366 µM)	250 (≈ 457 µM)	> 1000	250 (≈ 457 µM)
CCOC(=O)C1=C(N)N(Nc2ccc(C)cc2)C2=C(C(=O)CC(C)(C)C2)C1c1cc2cc(OC)ccc2nc1Cl (centres undefined)	500 (≈ 891 µM)	> 1000	62.5 (≈ 111 µM)	200 (≈ 356 µM)	100 (≈ 178 µM)	125 (≈ 223 µM)	500 (≈ 891 µM)	125 (≈ 223 µM)
CCOC(=O)C1=C(N)N(Nc2ccccc2)C2=C(C(=O)CC(C)(C)C2)C1c1cc2cc(Cl)ccc2nc1Cl (centres undefined)	100 (≈ 181 µM)	250 (≈ 453 µM)	250 (≈ 453 µM)	200 (≈ 363 µM)	100 (≈ 181 µM)	200 (≈ 363 µM)	1000 (≈ 1810 µM)	125 (≈ 227 µM)
CCOC(=O)C1=C(N)N(Nc2ccc(Cl)cc2)C2=C(C(=O)CC(C)(C)C2)C1c1cc2cc(OC)ccc2nc1Cl (centres undefined)	250 (≈ 430 µM)	> 1000	100 (≈ 172 µM)	250 (≈ 430 µM)	250 (≈ 430 µM)	250 (≈ 430 µM)	500 (≈ 860 µM)	100 (≈ 172 µM)

Compound	MIC (Vibrio cholerae) [µg/mL]	MIC (Aspergillus fumigatus) [µg/mL]	MIC (Salmonella typhi) [µg/mL]	MIC (Bacillus subtilis) [µg/mL]	MIC (Streptococcus pneumoniae) [µg/mL]	MIC (Clostridium tetani) [µg/mL]	MIC (Candida albicans) [µg/mL]	MIC (Escherichia coli) [µg/mL]
CCOC(=O)C1=C(N)N(Nc2ccc(Cl)cc2)C2=C(C(=O)CC(C)(C)C2)C1c1cc2ccccc2nc1Cl (centres undefined)	250 (≈ 453 µM)	250 (≈ 453 µM)	250 (≈ 453 µM)	200 (≈ 363 µM)	200 (≈ 363 µM)	125 (≈ 227 µM)	1000 (≈ 1810 µM)	200 (≈ 363 µM)
CCOC(=O)C1=C(N)N(Nc2ccc(OC)cc2)C2=C(C(=O)CC(C)(C)C2)C1c1cc2cc(OC)ccc2nc1Cl (centres undefined)	250 (≈ 433 µM)	500 (≈ 866 µM)	200 (≈ 347 µM)	250 (≈ 433 µM)	250 (≈ 433 µM)	250 (≈ 433 µM)	1000 (≈ 1730 µM)	200 (≈ 347 µM)
CCn1cc(C(=O)O)c(=O)c2cc(F)c(N3CCNCC3)cc21 [NORFLOXACIN]	10 (≈ 31.3 µM)	–	10 (≈ 31.3 µM)	100 (≈ 313 µM)	10 (≈ 31.3 µM)	50 (≈ 157 µM)	–	10 (≈ 31.3 µM)
CCOC(=O)C1=C(N)N(Nc2ccc(OC)cc2)C2=C(C(=O)CC(C)(C)C2)C1c1cc2cc(Cl)ccc2nc1Cl (centres undefined)	250 (≈ 430 µM)	> 1000	250 (≈ 430 µM)	500 (≈ 860 µM)	500 (≈ 860 µM)	250 (≈ 430 µM)	1000 (≈ 1720 µM)	250 (≈ 430 µM)
CCOC(=O)C1=C(N)N(Nc2ccc(F)cc2)C2=C(C(=O)CC(C)(C)C2)C1c1cc2cc(Cl)ccc2nc1Cl (centres undefined)	500 (≈ 878 µM)	> 1000	250 (≈ 439 µM)	500 (≈ 878 µM)	500 (≈ 878 µM)	250 (≈ 439 µM)	1000 (≈ 1760 µM)	200 (≈ 351 µM)
CCOC(=O)C1=C(N)N(Nc2ccc(Br)cc2)C2=C(C(=O)CC(C)(C)C2)C1c1cc2cc(OC)ccc2nc1Cl (centres undefined)	200 (≈ 320 µM)	500 (≈ 799 µM)	200 (≈ 320 µM)	250 (≈ 399 µM)	250 (≈ 399 µM)	200 (≈ 320 µM)	> 1000	200 (≈ 320 µM)
GENTAMICIN	5	–	5	1	0.5	5	–	0.05
NYSTATIN	–	100	–	–	–	–	100	–
CCOC(=O)C1=C(N)N(Nc2ccc(Cl)cc2)C2=C(C(=O)CC(C)(C)C2)C1c1cc2cc(Cl)ccc2nc1Cl (centres undefined)	250 (≈ 427 µM)	500 (≈ 853 µM)	250 (≈ 427 µM)	500 (≈ 853 µM)	500 (≈ 853 µM)	250 (≈ 427 µM)	1000 (≈ 1710 µM)	250 (≈ 427 µM)
COC1=CC(=O)C[C@@H](C)[C@]12Oc1c(Cl)c(OC)cc(OC)c1C2=O [GRISEOFULVIN]	–	100 (≈ 283 µM)	–	–	–	–	500 (≈ 1420 µM)	–
CCOC(=O)C1=C(N)N(Nc2ccccc2)C2=C(C(=O)CC(C)(C)C2)C1c1cc2ccccc2nc1Cl (centres undefined)	500 (≈ 967 µM)	> 1000	200 (≈ 387 µM)	200 (≈ 387 µM)	200 (≈ 387 µM)	500 (≈ 967 µM)	250 (≈ 484 µM)	50 (≈ 96.7 µM)
CCOC(=O)C1=C(N)N(Nc2ccc(C)cc2)C2=C(C(=O)CC(C)(C)C2)C1c1cc2cc(Cl)ccc2nc1Cl (centres undefined)	500 (≈ 884 µM)	> 1000	500 (≈ 884 µM)	250 (≈ 442 µM)	100 (≈ 177 µM)	500 (≈ 884 µM)	250 (≈ 442 µM)	500 (≈ 884 µM)
O=C(O)c1cn(C2CC2)c2cc(N3CCNCC3)c(F)cc2c1=O [CIPROFLOXACIN]	25 (≈ 75.4 µM)	–	25 (≈ 75.4 µM)	–	50 (≈ 151 µM)	–	–	25 (≈ 75.4 µM)
CCOC(=O)C1=C(N)N(Nc2ccc(C)cc2)C2=C(C(=O)CC(C)(C)C2)C1c1cc2ccccc2nc1Cl (centres undefined)	125 (≈ 235 µM)	> 1000	250 (≈ 471 µM)	500 (≈ 942 µM)	250 (≈ 471 µM)	500 (≈ 942 µM)	> 1000	250 (≈ 471 µM)
CC1(C)S[C@@H]2[C@H](NC(=O)[C@H](N)c3ccccc3)C(=O)N2[C@H]1C(=O)O [AMPICILLIN]	100 (≈ 286 µM)	–	100 (≈ 286 µM)	250 (≈ 715 µM)	100 (≈ 286 µM)	250 (≈ 715 µM)	–	100 (≈ 286 µM)
